{"source": "paper PMC12670317", "about": "“Targeted NAT10 Degradation by PROTAC NP1192 Suppresses Hypoxia-Adaptive Glycolysis and Reinvigorates CD8^+ Effector T‑Cell Function for Synergistic Cancer Immunotherapy” (ACS Central Science, 2025)", "key": {"[1]": {"assay": "Pharmacokinetic study in male SD rats", "format": "in vivo", "details": "Sprague-Dawley (SD), rat, plasma; for AUC(0-t): 0–24 h; for MRT last: read-out: MRT(0−t); for MRT inf: read-out: MRT(0−∞)", "protocol": "Male SD rats (180–220 g) were purchased from Beijing Vital River Laboratory Animal Technology Co., Ltd. Blood samples (0.25 mL) were collected from the tail vein at 0.0833, 0.25, 0.5, 1, 2, 4, 6, 8, and 24 h after oral (10 mg/kg) or intravenous (2 mg/kg) administration of compound NP1192. Drug concentrations in the samples were determined by using liquid chromatography–mass spectrometry (LC-MS/MS). The mobile phase consisted of a mixture of solvent A (acetonitrile) and solvent B (formic acid/ultrapure water, 1:1000, v/v). The flow rate of the mobile phase was 0.3 mL/min, and the injection volume was 10 μL."}, "[2]": {"assay": "Acute toxicity in C57BL/6J mice", "details": "male, mouse, in vivo, ip; C57BL/6J mice, intraperitoneal, 14 days survival", "protocol": "(§1) Six-weeks old C57BL/6J male mice were purchased from Guangzhou Southern Medical University Experimental Animal Technology Development Co. The mice were administered intraperitoneally NP1192 (100, 500, 1000 mg/kg). The survival of mice was monitored for 14 days, consecutively."}, "C57BL/6J mice": {"system": "C57BL/6J mice", "assay": "Acute toxicity in C57BL/6J mice", "details": "mouse, in vivo, 1000 mg/kg", "protocol": "as §1"}, "NAT10": {"target": "T1, NAT10 (Homo sapiens, UniProt Q9H0A0)", "T1 construct": "depletion of total NAT10 protein in SiHa (human) and U14 (murine) CCa cell lines; endogenous in cells; host or cells: SiHa (human cervical cancer cell line)", "T1 sequence (Q9H0A0 1-1025)": "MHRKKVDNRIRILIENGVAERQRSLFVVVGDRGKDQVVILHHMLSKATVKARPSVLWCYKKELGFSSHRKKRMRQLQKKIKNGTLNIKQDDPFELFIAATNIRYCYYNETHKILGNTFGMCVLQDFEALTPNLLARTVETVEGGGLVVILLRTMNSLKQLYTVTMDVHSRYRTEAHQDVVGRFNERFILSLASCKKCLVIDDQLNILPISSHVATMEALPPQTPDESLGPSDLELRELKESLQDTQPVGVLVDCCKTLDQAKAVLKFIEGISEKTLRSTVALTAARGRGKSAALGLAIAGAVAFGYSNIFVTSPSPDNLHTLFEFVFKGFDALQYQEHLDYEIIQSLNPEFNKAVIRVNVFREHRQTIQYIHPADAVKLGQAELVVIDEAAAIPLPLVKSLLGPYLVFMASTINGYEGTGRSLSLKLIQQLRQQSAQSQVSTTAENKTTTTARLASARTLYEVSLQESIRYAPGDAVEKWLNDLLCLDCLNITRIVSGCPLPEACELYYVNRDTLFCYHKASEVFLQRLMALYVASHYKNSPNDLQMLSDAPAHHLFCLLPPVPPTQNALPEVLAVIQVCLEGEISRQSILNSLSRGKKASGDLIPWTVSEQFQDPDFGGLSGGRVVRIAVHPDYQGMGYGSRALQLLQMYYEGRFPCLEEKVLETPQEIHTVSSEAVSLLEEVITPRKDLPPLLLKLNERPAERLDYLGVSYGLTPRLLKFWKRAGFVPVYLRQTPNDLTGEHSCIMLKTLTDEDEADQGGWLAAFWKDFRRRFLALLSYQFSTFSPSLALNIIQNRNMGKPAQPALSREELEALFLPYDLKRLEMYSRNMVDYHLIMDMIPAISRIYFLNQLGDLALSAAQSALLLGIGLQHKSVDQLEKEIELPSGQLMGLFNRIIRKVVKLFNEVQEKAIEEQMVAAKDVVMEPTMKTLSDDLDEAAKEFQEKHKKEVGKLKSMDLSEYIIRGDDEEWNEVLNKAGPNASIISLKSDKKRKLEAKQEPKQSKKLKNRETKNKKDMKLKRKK", "assay": "NAT10 degradation in SiHa cells, Western blot", "format": "cell-based", "protocol": "The human CCa cell line SiHa and the normal epithelial foreskin fibroblast line HFF-1 were purchased from the Cell Bank of the Chinese Academy of Sciences. Additionally, murine cervical carcinoma cell line U14 (RRID:CVCL_9U56) was purchased from Boster Company. HFF-1 and U14 cells were cultured in Dulbecco’s modified Eagle’s medium (DMEM) (Gibco, USA) supplemented with 10% heat-inactivated fetal bovine serum (FBS; Gibco, USA), while SiHa cells were incubated in RPMI 1640 medium (Gibco, USA) in a humid atmosphere with 5% CO2 at 37 °C. For hypoxia exposure, the cells were incubated in a sealed culture tank containing 5% CO2 and 0.1% O2 (MGC, Japan) for 36 h.\nRIPA lysis buffer (Beyotime, China) mixed with 1% protease inhibitor (Sigma, US) was added to the cells, and a sample of total protein was obtained and then loaded onto an 8% or 12% polyacrylamide gel. The gel was placed in a buffer solution, and an electric current was applied. The separated proteins were subsequently transferred from the gel onto a PVDF membrane. Next, the membrane was blocked with 5% milk for 1 h to prevent nonspecific antibody binding. The membranes were subsequently incubated with anti-NAT10 (1:1000, Abcam, USA), anti-PD-L1 (1:1000, Proteintech, China), anti-HIF-1α (1:1000, Abmart, China), and anti-β-tubulin (1:1000, Proteintech, China) primary antibodies for 12 h. Afterward, the membrane was sequentially washed with 1× TBST and incubated for 1 h with an antimouse secondary antibody (1:6000, Elabscience, China) or antirabbit secondary antibody (1:6000, Elabscience, China). The target proteins were detected via chemiluminescence with a ChemiDoc MP Imaging System (Bio-Rad, US)."}, "[3]": {"system": "CD8+ T cells cocultured with U14 cells", "details": "Figure 7B, coculture with U14 cells, 36 h", "procedure": "Fresh CD8^+ T cells were extracted according to the instructions of the kit. The day before the CD8^+ T cells were extracted, the antimouse CD3 antibody was diluted to 5 μg/mL with sterile PBS, and the diluted antibody was added to a 24-well plate and incubated overnight at 4 °C. (Before the antibody was added to the plate, the plate was rinsed with sterile PBS 2–3 times to avoid dry wells). The plate incubated the previous day was removed from the 4 °C refrigerator on the second day, and the coating solution was discarded, followed by washing with sterile PBS 3 times. Amplification culture medium consisting of DMEM + 10% serum + 5 μg/mL antimouse CD28 + IL-2 was prepared. The cell lines used for culture were maintained in the logarithmic growth phase (70–80% confluence). Cell counting was performed, and CCa cells were seeded in a 12-well plate (10^5 cells/well) and cultured until adherence. T cells were mixed with tumor cells at different effector-to-target ratios (1:10) and then incubated with different drugs for 24 h. Flow cytometry experiments were then performed to detect the CD8^+ T-cell subtypes."}}, "note": "Read-outs that look alike come from different tables or passages of the source."}
{"smiles": "N#Cc1ccc(-c2csc(N(CCCCCCC(=O)N3CCN(c4cccc5c4C(=O)N(C4CCC(=O)NC4=O)C5=O)CC3)N=C3CCCC3)n2)cc1", "note": "(stereo not shown) [NP1192]", "values": [{"measurement": "Cmax", "setting": "[1]; iv, i.v. 2 mg/kg", "value": "759 ± 134", "unit": "ng/mL"}, {"measurement": "AUC(0-t)", "setting": "[1]; iv, i.v. 2 mg/kg", "value": "365 ± 42.6", "unit": "ng·h/mL"}, {"measurement": "AUC(0-inf)", "setting": "[1]; iv, i.v. 2 mg/kg", "value": "367 ± 43", "unit": "ng·h/mL"}, {"measurement": "Tmax", "setting": "[1]; iv, i.v. 2 mg/kg", "value": 0.0833, "unit": "h"}, {"measurement": "clearance", "setting": "[1]; iv, i.v. 2 mg/kg", "value": 91.7, "unit": "mL/min/kg"}, {"measurement": "half-life", "setting": "[1]; iv, i.v. 2 mg/kg", "value": "0.967 ± 0.214", "unit": "h"}, {"measurement": "MRT last", "setting": "[1]; iv, i.v. 2 mg/kg", "value": "0.529 ± 0.0268", "unit": "h"}, {"measurement": "MRT inf", "setting": "[1]; iv, i.v. 2 mg/kg", "value": "0.57 ± 0.0206", "unit": "h"}, {"measurement": "Vd", "setting": "[1]; iv, i.v. 2 mg/kg, read-out: Vz", "value": "7.6 ± 1.39", "unit": "L/kg"}, {"measurement": "bioavailability", "setting": "[1]; oral, p.o. 10 mg/kg vs i.v. 2 mg/kg, read-out: oral bioavailability (F)", "value": 1.35, "unit": "%"}, {"measurement": "AUC(0-inf)", "setting": "[1]; po, p.o. 10 mg/kg", "value": "29.5 ± 1.59", "unit": "ng·h/mL"}, {"measurement": "Tmax", "setting": "[1]; po, p.o. 10 mg/kg", "value": 1.67, "unit": "h"}, {"measurement": "half-life", "setting": "[1]; po, p.o. 10 mg/kg", "value": "2.4 ± 1.15", "unit": "h"}, {"measurement": "MRT last", "setting": "[1]; po, p.o. 10 mg/kg", "value": "1.56 ± 0.358", "unit": "h"}, {"measurement": "MRT inf", "setting": "[1]; po, p.o. 10 mg/kg", "value": "2.85 ± 0.862", "unit": "h"}, {"measurement": "Cmax", "setting": "[1]; po, p.o. 10 mg/kg", "value": "13.9 ± 6.42", "unit": "ng/mL"}, {"measurement": "AUC(0-t)", "setting": "[1]; po, p.o. 10 mg/kg", "value": "24.7 ± 1.11", "unit": "ng·h/mL"}, {"measurement": "LD50 at 14 days", "setting": "[2]", "value": "> 1000", "unit": "mg/kg"}, {"measurement": "tolerability in acute toxicity test", "setting": "C57BL/6J mice", "value": "well-tolerated"}, {"measurement": "NAT10 degradation rate", "setting": "NAT10; SiHa cells, 1.25 μM, 36 h", "value": 28, "unit": "%"}, {"measurement": "NAT10 degradation rate", "setting": "NAT10; SiHa cells, 2.5 μM, 36 h", "value": 32, "unit": "%"}, {"measurement": "NAT10 degradation rate", "setting": "NAT10; SiHa cells, 5 μM, 36 h", "value": 40, "unit": "%"}, {"measurement": "NAT10 degradation rate", "setting": "NAT10; SiHa cells, 10 μM, 36 h", "value": 43, "unit": "%"}, {"measurement": "NAT10 degradation rate (maximum)", "setting": "NAT10; SiHa cells, 20 μM, 36 h", "value": 69, "unit": "%"}, {"measurement": "NAT10 degradation", "setting": "NAT10; SiHa cells, after 24 h", "value": 20, "unit": "%"}, {"measurement": "NAT10 degradation rate", "setting": "NAT10; SiHa cells, panel TP1–32 at the same time and concentration, Figure 1E", "value": 71, "unit": "%"}, {"measurement": "hook effect in NAT10 degradation", "setting": "NAT10; concentrations as high as 20 μM", "value": "did not exhibit the classical hook effect"}, {"measurement": "Teff cells, IFN-γ gate (lower row)", "setting": "[3]", "value": 7.75, "unit": "%"}]}
